Experimental findings from PubChem BioAssay (NCI) are described below.

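Test compounds were applied to cells in 96-well plates for 48 hours at 5 doses. TGI denotes the concentration required for complete inhibition of growth.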 Where only a bound is given, the exact number is not on record here.

Holding throughout (assay): DTP human tumour cell line panel, 48 h
For test [1], the system named is 786-0 renal.
Test [2] has as its system A498 renal.
The test system of test [3] is CAKI-1 renal.
For test [4], the system named is HCT-15 colon.
The test system of test [5] is K-562 leukemia.
In test [6] the test system is KM12 colon.
Test [7] relates to M14 melanoma.
Test [8] deals with MALME-3M melanoma.
Test [9] deals with NCI-H23 lung.
In test [10] the test system is NCI-H460 lung.
For test [11], the system named is OVCAR-3 ovarian.
The test system of test [12] is OVCAR-8 ovarian.
Test [13] has as its system SK-MEL-5 melanoma.
The test system of test [14] is SNB-19 CNS.
Test [15] deals with SNB-75 CNS.
Test [16] relates to TK-10 renal.

As a reminder, the TGI is the concentration at which net growth stops. High values mean less potent growth arrest, low ones more potent growth arrest. With `CSc1nc2c(c(O)c(C)c(=O)n2C2OCC(OC(C)=O)C(OC(C)=O)C2OC(C)=O)c(=O)n1C` (stereo unspecified), the TGI in test [1], in [2], in test [3], in test [4], in test [5] and in test [6] was > 100 µM in each case. Besides, the concentration for total growth inhibition (TGI) in [7], in [8], in test [9], in test [10], in [11] and in test [12] was > 100 µM each time. For the same molecule, the TGI in test [13], in [14], in test [15] and in test [16] was > 100 µM in each case.
As for `CCC1(N=[N+]=[N-])C(=O)c2ccccc2N(c2ccccc2)C1=O` (stereo unspecified), the TGI in [1], in test [2], in test [3], in test [4], in [5] and in test [6] was > 100 µM throughout. For the same molecule, the TGI in test [7], in test [8], in test [9], in [10], in [11] and in test [12] was > 100 µM each time. The TGI in [13], in test [14], in test [15] and in test [16] was > 100 µM throughout.
On to `Brc1ccc2c(c1)C1C(CO2)C(c2ccccc2)=NN1c1ccccc1` (stereo unspecified), for which the TGI in test [1], in test [2], in [5], in [6], in [8] and in test [9] was > 100 µM in each case. For the same molecule, the TGI in test [10], in test [11], in test [12], in test [14], in test [15] and in test [16] was > 100 µM each time.
In the case of `Cc1nc2c(n1CCN(C)C)C(=O)c1ccccc1C2=O`, the TGI was > 100 µM in test [1]; 26 µM in test [4]; 48.4 µM in test [5]; 40.9 µM in test [6]; 24.1 µM in test [7]; 8.06 µM in [8]. The TGI in test [9] turned out to be 24.5 µM; in [10], 45.5 µM; in test [11], 20 µM; in test [12], 43.1 µM; in [13], 20.4 µM; in test [14] it was 76.2 µM. The TGI in [15] and in test [16] was > 100 µM throughout.
Take `Cn1nc2ccc3nccc(N(CCO)CCO)c3c2n1`: the TGI in test [1], in [2], in test [3], in test [4], in test [5] and in [6] was > 100 µM throughout. The TGI in [7], in test [8], in test [9], in [10], in [11] and in [12] was > 100 µM each time. The TGI in test [13], in [14], in [15] and in [16] was > 100 µM in each case.
For `CCCCCCCCCCCCn1[nH]c(C)c(C(=S)SCCCCCCCC)c1=O`, the TGI in test [1], in [2], in test [3], in test [4], in [5] and in test [6] was > 100 µM throughout. Moreover, the TGI in [7] was > 100 µM; in [8] it was > 100 µM; in [9] it was > 100 µM; in [10] it was > 100 µM; in test [11], > 100 µM; in test [12], > 88.1 µM. The TGI in test [13], in test [14], in test [15] and in test [16] was > 100 µM in each case.
Take `COC(=O)NC(=O)c1cn(CCCOC(=O)CCCCCCCCC(=O)OCCCn2cc(C(=O)NC(=O)OC)c(=O)[nH]c2=O)c(=O)[nH]c1=O`: the TGI in [1], in test [2], in test [3], in test [4], in [5] and in test [6] was > 100 µM in each case. Besides, the TGI in test [7], in test [8], in test [9], in [10], in [11] and in [12] was > 100 µM in each case. The TGI in [13] was > 100 µM; in test [14] it was 76.5 µM; in test [15], 50.1 µM; in [16], > 100 µM.
Consider `CC1C=C[C@H](Sc2ccccc2)CC[C@@]1(C)O` (stereo partly specified), for which the TGI in test [1], in test [2], in test [3], in test [4], in test [5] and in test [7] was > 100 µM each time. Further, the TGI in [8], in test [9], in test [10], in test [12], in test [13] and in [14] was > 100 µM each time. For the same molecule, the TGI in [15] and in test [16] was > 100 µM throughout.
On to `COC(=O)C1N=CSCC1(C)O` (stereo unspecified), for which the TGI in test [1], in test [2], in [3], in [4], in [5] and in test [6] was > 100 µM each time. Further, the TGI in test [7], in test [8], in [9], in [10], in test [11] and in test [12] was > 100 µM in each case. For the same molecule, the TGI in [13], in test [14], in [15] and in test [16] was > 100 µM in each case.
In the case of `CC(C)(Oc1ccc2c(=O)cc(-c3ccccc3)oc2c1)C(=O)Nc1c(Cl)cccc1Cl`, the TGI in test [1], in [2], in test [3], in test [4], in test [5] and in [6] was > 100 µM throughout. Also, the TGI in test [7], in test [8], in test [9], in test [10], in test [11] and in test [12] was > 100 µM in each case. Further, the TGI in test [13], in test [14] and in [16] was > 100 µM in each case.
For the molecule `COc1ccc(N2C(=O)[C@@H]3[C@H](C2=O)c2[nH]c4ccccc4c2C2CCC(C(C)(C)C)C[C@@H]23)cc1` (stereo partly specified), the TGI in test [1] was 31.1 µM; in test [2], 64 µM; in test [3], > 68.9 µM; in [4], > 100 µM; in test [5], > 31.6 µM; in [6] it was > 100 µM. Besides, the TGI in [7] was > 100 µM; in test [8], > 85 µM; in test [9] it was 66.4 µM; in [10], > 100 µM; in test [11] it was > 75.7 µM; in [12] it was 42.2 µM. The TGI in test [13] was > 100 µM; in test [14], > 61.4 µM; in test [15], 38 µM; in test [16], 74.6 µM.
As to `CC(=O)NC(CCCNC(=O)NCCCl)C(=O)NCc1ccccc1` (stereo unspecified), the TGI in test [1], in [3], in test [4], in test [5], in test [6] and in [7] was > 100 µM in each case. Moreover, the TGI in [8], in [9], in test [10], in test [11], in test [12] and in test [13] was > 100 µM throughout. Moreover, the TGI in test [14], in test [15] and in [16] was > 100 µM throughout.
With `COc1ccc(NC(=O)CC(=O)N/N=C/c2ccc(N(CCC#N)S(=O)(=O)c3ccccc3)cc2)cc1`, the TGI in test [1], in test [3], in [4], in test [5], in test [6] and in [7] was > 100 µM each time. Further, the TGI in [8], in [9], in test [10], in test [11], in test [12] and in test [13] was > 100 µM each time. For the same molecule, the TGI in [14] and in test [16] was > 100 µM each time.
Turning to `O=C(O)Cn1c(=O)[nH]c(=O)c2[nH]cnc21`, the TGI in test [1], in test [2], in test [4], in [5], in [6] and in test [7] was > 100 µM throughout. Besides, the TGI in [8], in test [9], in test [10], in test [11], in test [12] and in test [13] was > 100 µM throughout. Moreover, the TGI in test [14], in test [15] and in [16] was > 100 µM each time.
